Laboratory results taken from patent publication US7560468B2, “Substituted 1,4,8-triazaspiro[4,5]decan-2-one compounds” (Gruenenthal GmbH, priority 2004, dated 2009).

Assays:
[1] = test system: batrachotoxin (BTX) binding site of the sodium channel; experiment: Affinity to the batrachotoxin (BTX) binding site of the sodium channel; settings: rat cerebrocortex synaptosomes, [3H]-batrachotoxinin A20 α-benzoate 10 nM; test concentration not given
5-HT transporter = biological target: T1, 5-HT transporter (Rattus norvegicus, UniProt P31652); experiment: Inhibition of 5-HT uptake in synaptosomes; assay type: biochemical; settings: rat, 1 μM
T1 construct: from tissue; host or cells: rat brain synaptosomes (marrow/medulla and pons), P2 fraction
T1 sequence (P31652 whole entry): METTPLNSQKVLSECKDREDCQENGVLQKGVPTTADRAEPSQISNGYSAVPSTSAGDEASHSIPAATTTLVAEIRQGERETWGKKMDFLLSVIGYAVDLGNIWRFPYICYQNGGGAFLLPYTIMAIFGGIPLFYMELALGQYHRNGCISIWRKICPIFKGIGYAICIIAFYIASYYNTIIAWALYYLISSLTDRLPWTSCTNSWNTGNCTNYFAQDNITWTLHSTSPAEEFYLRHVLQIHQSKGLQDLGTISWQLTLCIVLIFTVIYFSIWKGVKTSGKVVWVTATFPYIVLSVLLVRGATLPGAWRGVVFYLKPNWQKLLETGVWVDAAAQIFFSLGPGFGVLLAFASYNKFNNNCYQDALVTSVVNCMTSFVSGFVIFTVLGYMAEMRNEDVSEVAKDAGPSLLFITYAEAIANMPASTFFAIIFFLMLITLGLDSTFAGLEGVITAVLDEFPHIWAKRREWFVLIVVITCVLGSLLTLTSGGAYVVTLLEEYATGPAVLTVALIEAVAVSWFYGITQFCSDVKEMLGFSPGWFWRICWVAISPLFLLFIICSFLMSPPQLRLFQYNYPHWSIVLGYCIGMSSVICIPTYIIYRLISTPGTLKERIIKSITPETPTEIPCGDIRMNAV

NA transporter = experiment: Inhibition of noradrenalin uptake in synaptosomes; assay type: biochemical
human CB2 receptor = human CB2 receptor (Homo sapiens, UniProt P34972); experiment: Affinity to the cannabinoid receptor CB2, displacement of [3H]-CP 55,940; settings: 10 μM, membranes of HEK 293EBNA cells with human CB2 receptor
Sequence of human CB2 receptor (P34972 whole entry): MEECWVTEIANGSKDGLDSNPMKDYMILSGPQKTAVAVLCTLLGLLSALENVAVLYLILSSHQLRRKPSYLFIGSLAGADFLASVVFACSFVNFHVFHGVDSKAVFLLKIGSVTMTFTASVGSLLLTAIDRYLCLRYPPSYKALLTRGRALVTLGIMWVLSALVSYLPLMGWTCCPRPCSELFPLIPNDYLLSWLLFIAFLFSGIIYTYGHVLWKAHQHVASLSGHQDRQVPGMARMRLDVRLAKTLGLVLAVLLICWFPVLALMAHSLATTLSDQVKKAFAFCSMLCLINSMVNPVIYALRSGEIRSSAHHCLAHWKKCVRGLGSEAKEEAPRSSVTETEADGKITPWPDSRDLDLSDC
Experimental: The radioligand used was tritium-labeled 5-(1,1-dimethylheptyl)-2-(5-hydroxypropyl)cyclohexyl)-1-alpha,2-beta,5-alpha)-phenol (^[3]H—CP 55,940 with 103.4 of Ci/mmol, 1 m Ci/mL). Determination was carried out in a test buffer comprising 50 mM of Tris-HCl, 2.5 mm of EDTA, 5 mm of MgCl2 and 1.0 mg/mL of fatty acid-free BSA. The test substances were in each case dissolved in DMSO.
The affinity of the compounds of the invention to the CB2 receptor is determined by their ability to displace ^[3]H—CP from 55,940 of CB2 receptors in membranes of HEK 293 EBNA cells. For this purpose 8 μg of membranes (20 mL of a solution of membranes in a concentration of 400 g/ml) are incubated in wells of a microtiter plate with a 0.33 nM of solution of [3]H-CP 55,949 (120 of Ci/mmol) in a total volume of test buffer of 200 μL for 90 minutes at 30° C.
Subsequently, either the test substances or WIN 55,212-2 for determination the non-specific binding are placed, dissolved in each case in dimethyl sulphoxide, in the wells so that in each case a concentration of the relevant substances of 10 μM is obtained.
Incubation is continued for a further 40 minutes at 30° C. dc. […] The filters are washed nine times with 0.5 mL of ice-cold washing buffer (50 nM of Tris-HCl, 5 mM of MgCl2, 2.5 mm of EDTA, 2% of BSA, pH 7.4), air-dried, placed in scintillation liquid, and the radioactivity is determined with the aid of a scintillation counter.
The percentage displacement of the radio-active ligand ^[3]H—CP 55,940 from its binding to the CB2 receptor is indicated as percentage inhibition of the specific binding. In order to determine Ki the IC50 inhibition concentrations are calculated based on of the percentage displacement achieved by the compounds of the general formula I to be tested at various concentrations causing a 50 percent displacement of the radioactive ligands.

O=C1C(Cc2ccccc2)NC2(CCN(C(=S)Nc3c(Cl)cccc3Cl)CC2)N1Cc1ccccc1F (stereo not shown) [Example 187, 3-Benzyl-1-(2-fluorobenzyl)-2-oxo-1,4,8-triazaspiro[4,5]decan-8-thiocarboxylic acid (2,6-dichlorobenzol)amide]
BTX Inhibition [1]: 86
Uptake_5-HT, rat, 1 μM, % inhibition (5-HT transporter): 54%
Uptake (NA), rat, 10 μM, % inhibition (NA transporter): 39%
Inhibition CB2 10 μM, % inhibition (human CB2 receptor): 84%
